Where two headings read alike, the source gives them in different places.
Biological target: T1, human Syk (GST-Syk) (Homo sapiens, UniProt P43405)
T1 construct: A cDNA fragment encoding human Syk openreading frame was cloned; made in house; host or cells: Sf21 insect cells (baculovirus, transfer vector pAcG2T)
Experiment: Syk tyrosine kinase inhibitory assay
Format: biochemical
Excerpt: [Syk Tyrosine Kinase Inhibitory Assay]
(1) Preparation of Syk Protein
A cDNA fragment encoding human Syk openreading frame was cloned from total RNA of human Burkitt's lymphoma B cell lines, Raji (American Type Culture Collection), with the use of RT-PCR method. The cDNA fragment was inserted into pAcG2T (Pharmingen, San Diego, Calif.) to construct a baculovirus transfer vector. Then the vector, together with the linearized baculovirus (BaculoGold™, Pharmingen), was used to transfect Sf21 cells (Invitrogen, San Diego, Calif.).
Generated recombinant baculovirus was cloned and amplified in Sf21 cells. Sf21 cells were infected with this amplified high titer virus to produce a chimeric protein of Syk kinase fused by glutathione-S-transferase (GST).
The resulting GST-Syk was purified with the use of glutathione column (Amersham Pharmacia Biotech AB, Uppsala, Sweden) according to the manufacturer's instruction.
(2) Synthesize of a Peptide
Next, a peptide fragment of 30 residues including two tyrosine residues, […], was synthesized by a peptide synthesizer. The N-terminal of the fragment was then biotinylated to obtain biotinylated activation loop peptide (AL).
(3) The Measurement of Syk Tyrosine Kinase Activity
All reagents were diluted with the Syk kinase assay buffer (50 mM Tris-HCl (pH 8.0), 10 mM MgCl2, 0.1 mM Na3VO4, 0.1% BSA, 1 mM DTT). First, a mixture (35 μl) including […] of GST-Syk and 0.5 μg of AL was put in each well in 96-well plates. Then 5 μl of a test compound in the presence of 2.5% dimethylsulfoxide (DMSO) was added to each well. To this mixture was added […] (10 μl) to initiate the kinase reaction. The final reaction mixture (50 μl) consists of 0.65 nM GST-Syk, 3 μM AL, 30 μM ATP, a test compound, 0.25% DMSO, and a Syk kinase assay buffer.
The mixture was incubated for 1 hr at room temperature, and the reaction was terminated by the addition of 120 μl of termination buffer (50 mM Tris-HCl (pH 8.0), 10 mMEDTA, 500 mM NaCl, 0.1% BSA). The mixture was transferred to streptavidin-coated plates and incubated for 30 min at room temperature to combine biotin-AL to the plates. After washing the plates with Tris-buffered saline (TBS) (50 mM Tris-HCl (pH 8.0), 138 mM NaCl, 2.7 mM KCl) containing 0.05% Tween-20 for 3 times, 100 μl of antibody solution consisting of 50 mM Tris-HCl (pH 8.0), 138 mM NaCl, 2.7 mM KCl, 1% BSA, 60 ng/ml anti-phosphotyrosine monoclonal antibody, 4G10 (Upstate Biotechnology), which is labeled with europium by Amersham Pharmacia's kit in advance, was added and incubated at room temperature for 60 min. After washing, 100 μl of enhancement solution (Amersham pharmacia Biotech) was added and then time-resolved fluorescence was measured by multi-label counter ARVO (Wallac Oy, Finland) at 340 nm for excitation and 615 nm for emission with 400 msec of delay and 400 msec of window.

[1] = Table 17, IC50 classes, read-out: Activity grade
[2] = in vitro, compounds as yielded by solid phase synthesis, purity about 40 to 90%, read-out: Activity grade (IC50 class)
[3] = in vitro, compounds as yielded by solid phase synthesis, purity about 40 to 90%
[4] = Table 11, read-out: Activity grade
[5] = Table 13, read-out: Activity grade

Row | IC50 [2] | Structure (SMILES) | also measured
1 |  | COc1ccc(-c2cc3nccn3c(Sc3ccc(CCC(=O)N(C)C)cc3)n2)cc1OC [compound 17] | IC50 [1]: < 500 nM
2 | < 500 nM | COc1ccc(-c2cc3nccn3c(Nc3ccc(S(=O)(=O)NC(=N)N)cc3)n2)cc1OC [Example 11-110] | 
3 | 2000 to 10000 nM | COc1ccc(-c2cc3nccn3c(N3CCC4(CC3)OCCO4)n2)cc1OC [Example 9-66] | 
4 | 2000 to 10000 nM | COc1cccc(N2CCN(c3nc(-c4ccc(OC)c(OC)c4)cc4nccn34)CC2)c1 [Example 9-43] | 
5 | 2000 to 10000 nM | COc1ccc(-c2cc3nccn3c(N3CCOCC3)n2)cc1OC [Example 9-30] | 
6 |  | CCSc1nc(-c2ccc(S(=O)(=O)N3CCOCC3)c(OC)c2)cc2nccn12 [Example 2-6] | Activity grade (IC50 class) [3]: C-D
7 |  | COc1ccc(Nc2nc(-c3ccc(N(C)C)c(OC)c3)cc3nccn23)cc1 [Example 12-52] | IC50 [4]: < 500 nM
8 | < 500 nM | COc1ccc(-c2cc3nccn3c(Nc3cccc(N(C)C)c3)n2)cc1OC [Example 11-81] | 
9 |  | COc1ccc(-c2cc3nccn3c(Nc3ccc(CC(N)C(=O)O)cc3)n2)cc1OC (centres unmarked) [Example 30] | IC50 [1]: < 500 nM
10 | < 500 nM | COc1ccc(-c2cc3nccn3c(Nc3ccc(CC#N)cc3)n2)cc1OC [Example 11-63] | 
11 | < 500 nM | CCN(CC)CCNc1ccc(C(N)=O)c(Nc2nc(-c3ccc(OC)c(OC)c3)cc3nccn23)c1 [Example 12] | IC50 [1]: < 500 nM
12 | 500 to 2000 nM | CCSc1nc(-c2ccc(OC)c(OS(C)(=O)=O)c2)cc2nccn12 [Example 4-9] | 
13 |  | COc1ccc(-c2cc3nccn3c(SCC(F)(F)F)n2)cc1OC [Example 14-16] | IC50 [5]: < 500 nM
14 |  | CCSc1nc(-c2ccc(N(C)C)c(OC)c2)cc2nccn12 [Example 17-15] | IC50 (Table 16, read-out: Activity grade): < 500 nM
15 | 2000 to 10000 nM | COc1ccc(-c2cc3nccn3c(N3CCN(c4ccccc4OC)CC3)n2)cc1OC [Example 9-34] | 
16 |  | COc1cc(-c2cc3nccn3c(Nc3ccccc3)n2)ccc1OCCCN1CCSCC1 [Example 12-34] | IC50 [4]: < 500 nM
17 |  | COC(=O)c1ccc(Nc2nc(-c3ccc(OC)c(OC)c3)cc3nccn23)s1 [Example 12-5] | IC50 [4]: 500 to 2000 nM

Row | IC50 [2] | Structure (SMILES) | also measured
18 | < 500 nM | COc1ccc(-c2cc3nccn3c(Nc3ccc(Cl)cc3)n2)cc1OC [Example 11-61] | 
19 | < 500 nM | COc1ccc(-c2cc3nccn3c(Nc3ccccc3S(N)(=O)=O)n2)cc1OC [Example 11-113] | 
20 | < 500 nM | COc1ccc(-c2cc3nccn3c(Nc3ccc4[nH]c(=O)[nH]c4c3)n2)cc1OC [Example 11-89] | 
21 | 2000 to 10000 nM | COc1ccc(-c2cc3nccn3c(N3CCN(Cc4ccc5c(c4)OCO5)CC3)n2)cc1OC [Example 9-32] | 
22 |  | CCOC(=O)C(C)Sc1nc(-c2ccc(OC)c(OC)c2)cc2nccn12 (centres unmarked) [Example 14-14] | IC50 [5]: 500 to 2000 nM
23 | < 500 nM | CCSc1nc(-c2ccc(OCCCN(C)CC)c(OC)c2)cc2nccn12 [Example 5-2] | 
24 | 500 to 2000 nM | COc1ccc(CNc2nc(-c3ccc(OC)c(OC)c3)cc3nccn23)c(OC)c1 [Example 9-80] | 
25 |  | COc1ccc(-c2cc3ncnn3c(Sc3ccc(NCC(=O)O)cc3)n2)cc1OC [Example 14-11] | IC50 [5]: < 500 nM
26 | < 500 nM | COc1ccc(-c2cc3nccn3c(Nc3ccc(C(F)(F)F)cc3)n2)cc1OC [Example 11-71] | 
27 | < 500 nM | COc1ccc(-c2cc3nccn3c(Nc3ccc(C(N)=O)cc3)n2)cc1OC [Example 11-36] | 
28 |  | COc1ccc(-c2cc3nccn3c(N3CCN(C4CCCCC4)CC3)n2)cc1OC [Example 9-48] | Activity grade (IC50 class) [3]: C-D
29 | < 500 nM | COc1ccc(-c2cc3nccn3c(Nc3cccc4c3C(=O)NC4=O)n2)cc1OC [Example 11-3] | 
30 |  | CNC(=O)CCc1ccc(Sc2nc(-c3ccc(OC)c(OC)c3)cc3nccn23)cc1 [Example 21] | IC50 [1]: < 500 nM
31 | < 500 nM | COc1ccc(-c2cc3nccn3c(Nc3ccc(F)c(F)c3)n2)cc1OC [Example 11-57] | 
32 |  | COc1cc(-c2cc3nccn3c(Nc3ccccc3)n2)ccc1OC(C)=O [Example 12-33] | IC50 [4]: < 500 nM
33 | 500 to 2000 nM | CCSc1nc(-c2ccc(OC(=O)C(C)C)c(OC)c2)cc2nccn12 [Example 3-8] | 

Row | Structure (SMILES) | IC50 [2] | also measured
34 | CCNC(=O)Oc1cc(-c2cc3nccn3c(SCC)n2)ccc1OC [Example 4-8] | < 500 nM | 

From patent US6911443B2 (Bayer Aktiengesellschaft, priority 2000, dated 2005)
